{"source": "patent US20230390283A1", "about": "“USES OF CHK2 INHIBITORS” (The University of Birmingham, priority 2020, published 2023)", "key": {"[1]": {"system": "primary adult rat dorsal root ganglion neuron (DRGN) cultures", "experiment": "DRGN survival and neurite outgrowth in culture", "format": "cell-based", "conditions": "for optimal concentration that promoted DRGN/RGC survival and neurite outgrowth: preliminary experiments, DRGN/RGC cultures", "protocol": "(§1) Rat DRGN and retinal cultures. […] Cells were cultured for 4 days in a humidified chamber at 37° C. and 5% CO2 before being subjected to quantitative RT-PCR or immunocytochemistry, as described below.\nImmunocytochemistry. […] Slides were then viewed with an epi-fluorescent Axioplan 2 microscope, equipped with an AxioCam HRc and running Axiovision Software (all from Carl Zeiss, Hertfordshire, UK)."}, "dorsal column (DC) axons": {"system": "dorsal column (DC) axons", "experiment": "DC crush injury model: GAP43+ DC axon regeneration", "format": "in vivo, rat"}, "[2]": {"system": "T8 dorsal column (DC) crush model of spinal cord injury", "experiment": "DC crush injury model: electrophysiology (compound action potentials)", "format": "in vivo, rat", "conditions": "6 weeks after DC injury", "protocol": "(§2) DC crush injury model. Rats were injected subcutaneously with 0.05 ml Buprenorphine to provide analgesia prior to surgery and anaesthetised using 5% of Isoflurane in 1.8 ml/l of O2 with body temperature and heart rate monitored throughout surgery.\n(§3) Chk2 inhibition studies in the DC crush injury model. […] Chk1i (LY2603618) was used at equimolar concentrations for each experiment. Rats were killed in a rising concentration of CO2 at either 28 d for immunohistochemistry and western blot analyses or 6 weeks for electrophysiology and functional tests.\nElectrophysiology. […] Briefly, with the experimenter masked to the treatment conditions, silver wire electrodes applied single-current pulses (0.05 ms) through a stimulus isolation unit in increments (0.2, 0.3, 0.6, 0.8, and 1.2 mA) at L1-L2 and compound action potentials (CAP) were recorded at C4-C5 along the surface of the midline spinal cord. Spike 2 software was then used to calculate CAP amplitudes between the negative deflection after the stimulus artifact and the next peak of the wave. CAP area was calculated by rectifying the negative CAP component (full-wave rectification) and measuring its area. At the different stimulation intensities. […] Representative CAP traces are processed output data from Spike 2 software."}, "[3]": {"system": "T8 dorsal column (DC) crush model of spinal cord injury", "experiment": "DC crush injury model: tape sensing and removal test (sensory function)", "format": "in vivo, rat", "conditions": "followed over 6 weeks", "protocol": "as §2, §3\n(§4) Functional tests. […] Experiments were performed by 2 observers (treatment conditions were masked) in the same order, the same time of day and each test performed for 3 individual trials."}, "[4]": {"system": "T8 dorsal column (DC) crush model of spinal cord injury", "experiment": "DC crush injury model: horizontal ladder test (locomotor function)", "format": "in vivo, rat", "conditions": "followed over 6 weeks", "protocol": "as §2, §3, §4\nHorizontal ladder test: This tests the animals locomotor function and is performed on a 0.9-meter-long horizontal ladder with a diameter of 15.5 cm and randomly adjusted rungs with variable gaps of 3.5-5.0 cm. The total number of steps taken to cross the ladder and the left and right rear paw slips being were recorded and the mean error rate was then calculated by dividing the number of slips by the total number of steps taken."}, "RGC [5]": {"system": "RGC", "experiment": "Glaucoma model: RGC survival in retinal wholemounts", "format": "in vivo, rat", "conditions": "30 days after induction of glaucoma", "protocol": "Induction of glaucoma. […] At day zero, a self-sealing incision was made though the cornea into the anterior chamber enabling twice weekly intracameral injections of 3.5 μl of TGFβ2 (5 ng/μl) using glass micropipettes for 30 days. Vehicle, comprising saline, was injected in control groups. Intraocular pressure was measured using an iCare Tonolab rebound tonometer (Icare, Helsinki, Finland).\n(§5) Assessment of RGC survival."}, "RGC [6]": {"system": "RGC", "experiment": "Optic neuritis model: RGC survival (Fluorgold backfilled wholemounts)", "format": "in vivo, mice", "conditions": "21 days after induction", "protocol": "(§6) Induction of optic neuritis. […] Animals were intraperitoneally injected with 150 ng Bordetella pertussis toxin on day 0 and 2. Animals were monitored daily and assessed for the development of EAE. At the end of the experiment, animals were then killed by CO2 overdose.\nas §5"}, "[7]": {"system": "retinal nerve fibre layer", "experiment": "Optic neuritis model: RNFL thickness by OCT", "format": "in vivo, mice", "conditions": "day 21", "protocol": "as §6\nMeasurement of RNFL thinning using optical coherence tomography (OCT). […] Examinations were recorded in both right (oculus dextrus, OD) and left eyes (oculus sinister, OS) of each animal at day 0 and day 21 after immunisation. […] A RNFL single exam using the automatic real time (ART) mode (allows averaging of 100 recordings) was produced for each mouse eye, which automatically measured RNFL thickness (μm) in a 30° circle surrounding the optic nerve head."}, "RGC function": {"system": "RGC function", "conditions": "24 days after ONC"}, "pChk2^T68 and pChk2^T383": {"system": "pChk2^T68 and pChk2^T383", "conditions": "western blot and densitometry", "protocol": "as §1\nProtein extraction and western blot analysis. […] For densitometry, western blots were scanned into Adobe Photoshop (Adobe Systems Inc, San Jose, Calif., USA) and analysed using the built-in-macros for gel analysis in ImageJ (NIH, USA, http://imagej.nih.clov/ij)."}}, "note": "“Also recorded” adds a separate entry of the source."}
{"compound": "NC(=O)c1ccc2[nH]c(-c3ccc(Oc4ccc(Cl)cc4)cc3)nc2c1", "note": "[BML-277]", "values": [{"measurement": "optimal concentration that promoted DRGN/RGC survival and neurite outgrowth", "setting": "[1]", "value": 5, "unit": "µM"}]}
{"compound": "COc1cc2nc(-c3cc(F)ccc3O)nc(N[C@@H]3CNC[C@H]3C(C)(C)O)c2cc1OC", "note": "[CCT241533]", "values": [{"measurement": "optimal concentration that promoted DRGN/RGC survival and neurite outgrowth", "setting": "[1]", "value": 10, "unit": "µM"}]}
{"compound": "Cc1cnc(NC(=O)Nc2cc(Br)c(C)cc2OC[C@@H]2CNCCO2)cn1", "note": "[LY2603618]", "values": [{"measurement": "effect on DRGN/RGC survival", "setting": "[1]; 1-50 μM", "value": "no effect"}, {"measurement": "effect on DRGN survival, % DRGN with neurites and neurite length", "setting": "[1]; 4 days culture", "value": "no effect"}, {"measurement": "DC axon regeneration beyond the lesion site", "setting": "dorsal column (DC) axons; listed as Chk1 i", "value": "few GAP43^+ axons"}, {"measurement": "DC axon regeneration beyond the lesion site", "setting": "dorsal column (DC) axons; listed as Chk1i", "value": "no axon regeneration beyond the lesion site"}, {"measurement": "CAP area at different stimulation intensities", "setting": "[2]", "value": "significantly attenuated"}, {"measurement": "negative CAP amplitudes", "setting": "[2]; different stimulation intensities", "value": "significantly attenuated"}, {"measurement": "tape sensing/removal test performance", "setting": "[3]; listed as Chk1 i", "value": "a significant deficit remained"}, {"measurement": "tape sensing/removal test performance", "setting": "[3]; listed as Chk1i", "value": "a significant deficit remained"}, {"measurement": "ladder crossing test performance", "setting": "[4]; listed as Chk1 i", "value": "a deficit remaining"}, {"measurement": "ladder crossing test performance", "setting": "[4]; listed as Chk1i", "value": "a significant deficit remains; also recorded: a deficit remaining"}, {"measurement": "RGC survival in glaucoma", "setting": "RGC [5]", "value": "no effect"}, {"measurement": "RGC survival in optic neuritis", "setting": "RGC [6]", "value": "no effect"}, {"measurement": "RNFL thickness in optic neuritis", "setting": "[7]", "value": "no effect"}, {"measurement": "ERG traces and pSTR amplitude", "setting": "RGC function", "value": "no effect"}]}
{"compound": "COc1cccc(OCCCN)c1-c1cc(Nc2cnc(C#N)cn2)n[nH]1", "note": "[Prexasertib]", "values": [{"measurement": "optimal concentration that promoted DRGN/RGC survival and neurite outgrowth", "setting": "[1]", "value": 10, "unit": "µM"}]}
{"compound": "CCT241533", "values": [{"measurement": "Chk2 phosphorylation (pChk2^T68, pChk2^T383) in DRGN cultures", "setting": "pChk2^T68 and pChk2^T383", "value": "suppresses"}]}
{"compound": "FGF2: positive control for DRGN cultures, pre-optimised 10 ng/ml", "values": [{"measurement": "% DRGN with neurites", "setting": "[1]; 4 days culture", "value": 42, "unit": "%"}, {"measurement": "mean neurite length", "setting": "[1]; 4 days culture, controls 12 μm", "value": 180, "unit": "μm"}]}
